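Protocol summary: plate cells (96-well), add compound at 5 concentrations, incubate 48 h, interpolate endpoints linearly. Abbreviation: GI50, concentration required for 50% inhibition of growth.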 The source made the active and inactive calls. No stated cut-off is given here; in the data, active = GI50 up to about 1.1 µM and inactive = higher.
What was measured:
Assay in all cases: NCI anticancer screen, dose series, 48 h
[1] = system: SN12C
[2] = system: NCI-H460
[3] = system: U-251
[4] = system: SW-620
[5] = system: SK-OV-3
[6] = system: SF-268
[7] = system: RXF 393
[8] = system: DLD-1
[9] = system: UO-31
[10] = system: Malme-3M
[11] = system: HCC 2998
[12] = system: HT-29
[13] = system: UACC-257
[14] = system: SNB-19
[15] = system: SK-MEL-2
[16] = system: HL-60
[17] = system: RPMI-8226

| Compound | GI50 [1] | GI50 [2] | GI50 [3] | GI50 [4] | GI50 [5] | GI50 [6] | GI50 [7] | GI50 [8] | GI50 [9] | GI50 [10] | GI50 [11] | GI50 [12] | GI50 [13] | GI50 [14] | GI50 [15] | GI50 [16] | GI50 [17] |
| --- | --- | --- | --- | --- | --- | --- | --- | --- | --- | --- | --- | --- | --- | --- | --- | --- | --- |
| O=C1OC2CCCC[C@@H]2C2C[C@]34CCCCC3[C@@H](C(=O)O4)C12 (stereo partly drawn) | > 100 µM (inactive) | > 100 µM (inactive) | > 100 µM (inactive) | > 100 µM (inactive) | > 100 µM (inactive) | > 100 µM (inactive) | > 100 µM (inactive) | > 100 µM (inactive) | > 100 µM (inactive) | > 100 µM (inactive) | > 100 µM (inactive) | > 100 µM (inactive) | > 100 µM (inactive) | > 100 µM (inactive) | > 100 µM (inactive) | – | – |
| CCCC(=O)c1ccc(=O)n(C)c1 | > 100 µM (inactive) | > 100 µM (inactive) | > 100 µM (inactive) | > 100 µM (inactive) | > 100 µM (inactive) | > 100 µM (inactive) | > 100 µM (inactive) | > 100 µM (inactive) | > 100 µM (inactive) | > 100 µM (inactive) | > 100 µM (inactive) | > 100 µM (inactive) | – | > 100 µM (inactive) | > 100 µM (inactive) | > 100 µM (inactive) | > 100 µM (inactive) |
| CC(=O)OCC1OC(NC(=S)N/N=C2\CC(c3ccccc3)Oc3ccccc32)C(OC(C)=O)C(OC(C)=O)C1OC(C)=O (stereo not drawn) | > 100 µM (inactive) | > 100 µM (inactive) | > 100 µM (inactive) | > 100 µM (inactive) | > 100 µM (inactive) | > 100 µM (inactive) | > 100 µM (inactive) | > 100 µM (inactive) | > 100 µM (inactive) | > 100 µM (inactive) | > 100 µM (inactive) | > 100 µM (inactive) | > 100 µM (inactive) | > 100 µM (inactive) | – | > 100 µM (inactive) | > 100 µM (inactive) |
| O=C(CC(=O)C(=O)CC(=O)OCc1ccccc1)OCc1ccccc1 | 57.1 µM (inactive) | – | 50.9 µM (inactive) | 88.9 µM (inactive) | > 100 µM (inactive) | 32.3 µM (inactive) | 75 µM (inactive) | 60.8 µM (inactive) | 27.3 µM (inactive) | > 100 µM (inactive) | > 100 µM (inactive) | > 100 µM (inactive) | – | 43.4 µM (inactive) | > 100 µM (inactive) | 63.4 µM (inactive) | 45.8 µM (inactive) |
| CC(Cl)(/C=C/Cl)C(Cl)/C=C/C(Cl)(CCl)CBr (stereo not drawn) | 3.18 µM (inactive) | 3.15 µM (inactive) | 3.72 µM (inactive) | 2.15 µM (inactive) | 17.1 µM (inactive) | 2.09 µM (inactive) | 1.45 µM (inactive) | 2.47 µM (inactive) | 14.5 µM (inactive) | 3.37 µM (inactive) | 14.6 µM (inactive) | 1.69 µM (inactive) | 2.2 µM (inactive) | 14.1 µM (inactive) | 3.82 µM (inactive) | 0.533 µM (active) | 1.66 µM (inactive) |
| O=C(CC(=O)N1N=C(N2c3ccccc3Sc3ccccc32)CC1c1ccccc1)Nc1ccc(Cl)cc1 (stereo not drawn) | > 100 µM (inactive) | > 100 µM (inactive) | > 100 µM (inactive) | > 100 µM (inactive) | > 100 µM (inactive) | > 100 µM (inactive) | > 100 µM (inactive) | > 100 µM (inactive) | > 100 µM (inactive) | > 100 µM (inactive) | > 100 µM (inactive) | > 100 µM (inactive) | > 100 µM (inactive) | > 100 µM (inactive) | – | > 10 µM (inactive) | – |
| COc1ccc2c3c(c(C(=O)O)oc13)CCC2 | > 100 µM (inactive) | > 100 µM (inactive) | > 100 µM (inactive) | > 100 µM (inactive) | > 100 µM (inactive) | > 100 µM (inactive) | > 100 µM (inactive) | > 100 µM (inactive) | 40.7 µM (inactive) | > 100 µM (inactive) | > 100 µM (inactive) | > 100 µM (inactive) | > 100 µM (inactive) | > 100 µM (inactive) | > 100 µM (inactive) | > 100 µM (inactive) | > 100 µM (inactive) |
| CCOC(=O)C1=C(C)N(Cc2ccccc2)C(C)=C(C(=O)OCC)C1c1ccccc1O | 28.4 µM (inactive) | 42.3 µM (inactive) | 39.4 µM (inactive) | 39.9 µM (inactive) | 47.2 µM (inactive) | 32.4 µM (inactive) | 18.7 µM (inactive) | 27.9 µM (inactive) | 32.1 µM (inactive) | 26 µM (inactive) | 44.8 µM (inactive) | 41.4 µM (inactive) | 26.9 µM (inactive) | 43.2 µM (inactive) | 20 µM (inactive) | 26.6 µM (inactive) | – |
| O=C1c2ccccc2C2(Br)C(=O)c3ccccc3C12 (stereo not drawn) | > 100 µM (inactive) | > 100 µM (inactive) | > 100 µM (inactive) | > 100 µM (inactive) | > 100 µM (inactive) | > 100 µM (inactive) | > 100 µM (inactive) | > 100 µM (inactive) | > 100 µM (inactive) | > 100 µM (inactive) | > 100 µM (inactive) | > 100 µM (inactive) | > 100 µM (inactive) | – | > 100 µM (inactive) | > 100 µM (inactive) | > 100 µM (inactive) |
| COc1cc(C(=O)C/C(CCC(=O)Nc2ccccc2[N+](=O)[O-])=N\NC(=O)CC#N)ccc1O | > 100 µM (inactive) | > 100 µM (inactive) | – | > 100 µM (inactive) | > 100 µM (inactive) | > 100 µM (inactive) | > 100 µM (inactive) | > 100 µM (inactive) | > 100 µM (inactive) | > 100 µM (inactive) | > 100 µM (inactive) | > 100 µM (inactive) | > 100 µM (inactive) | > 100 µM (inactive) | > 100 µM (inactive) | > 100 µM (inactive) | > 100 µM (inactive) |
| c1ccc2c(c1)oc1ccc3nsnc3c12 | – | > 10 µM (inactive) | – | > 100 µM (inactive) | > 100 µM (inactive) | > 100 µM (inactive) | 71 µM (inactive) | > 100 µM (inactive) | > 100 µM (inactive) | > 100 µM (inactive) | > 100 µM (inactive) | > 100 µM (inactive) | > 100 µM (inactive) | > 100 µM (inactive) | > 100 µM (inactive) | > 100 µM (inactive) | – |
| O=C1CC(C[C@H](O)C2CCCCC2O)CC(=O)N1Cc1ccccc1 (stereo partly drawn) | > 100 µM (inactive) | > 100 µM (inactive) | > 100 µM (inactive) | > 100 µM (inactive) | > 100 µM (inactive) | > 100 µM (inactive) | > 100 µM (inactive) | > 100 µM (inactive) | > 100 µM (inactive) | > 100 µM (inactive) | > 100 µM (inactive) | > 100 µM (inactive) | > 100 µM (inactive) | > 100 µM (inactive) | > 100 µM (inactive) | > 100 µM (inactive) | – |
| C[N+]1(C)C/C(=C\c2ccccc2)C(=O)/C(=C/c2ccccc2)C1 | 18.5 µM (inactive) | > 100 µM (inactive) | 31.4 µM (inactive) | – | > 100 µM (inactive) | > 100 µM (inactive) | > 100 µM (inactive) | > 100 µM (inactive) | > 100 µM (inactive) | > 100 µM (inactive) | > 100 µM (inactive) | > 100 µM (inactive) | > 100 µM (inactive) | – | – | > 100 µM (inactive) | 51.2 µM (inactive) |
| NCCNCCNCc1c2ccccc2c(CNCCNCCN)c2ccccc12 | 58.2 µM (inactive) | 31.2 µM (inactive) | 51.6 µM (inactive) | 90.4 µM (inactive) | > 100 µM (inactive) | 69.5 µM (inactive) | 40.9 µM (inactive) | > 100 µM (inactive) | > 100 µM (inactive) | 84.9 µM (inactive) | 54 µM (inactive) | 40.2 µM (inactive) | > 100 µM (inactive) | – | > 100 µM (inactive) | 46.1 µM (inactive) | 29.6 µM (inactive) |
| CN(C)CCNC(=O)c1cccc2nc3ccc4ccccc4c3nc12 | 0.0478 µM (active) | 0.0266 µM (active) | 0.112 µM (active) | 0.0181 µM (active) | 0.144 µM (active) | 0.0592 µM (active) | 0.0583 µM (active) | 0.047 µM (active) | 0.0685 µM (active) | – | 0.126 µM (active) | 0.0499 µM (active) | 0.212 µM (active) | 0.132 µM (active) | 0.177 µM (active) | 0.114 µM (active) | – |
| CC(=O)O/C(C)=C\C(=O)O/N=C(\N)c1ccc(C)cc1 | 22 µM (inactive) | 29.6 µM (inactive) | 19.5 µM (inactive) | 39.4 µM (inactive) | > 100 µM (inactive) | 29.8 µM (inactive) | 27.4 µM (inactive) | 18.9 µM (inactive) | 61.1 µM (inactive) | 25.4 µM (inactive) | > 100 µM (inactive) | 35.6 µM (inactive) | 30.8 µM (inactive) | 43.7 µM (inactive) | 28.6 µM (inactive) | 21.1 µM (inactive) | 31 µM (inactive) |
| CSc1ccc2c(cc1=O)C(NC(=O)c1cc(O)c(OC(=O)O)c(O)c1)CCc1cc(O)c(O)c(O)c1-2 (stereo not drawn) | 13.3 µM (inactive) | 20.7 µM (inactive) | 16 µM (inactive) | 14 µM (inactive) | > 89.9 µM (inactive) | 19.8 µM (inactive) | 25.9 µM (inactive) | 18.5 µM (inactive) | 15.3 µM (inactive) | 35 µM (inactive) | > 89.9 µM (inactive) | 20 µM (inactive) | 31 µM (inactive) | 50.9 µM (inactive) | > 89.9 µM (inactive) | 10 µM (inactive) | 14.5 µM (inactive) |

Reference: ChEMBL document CHEMBL1201862, “PubChem BioAssay data set” (2004)
